Results from patent US6342368B1, “WD-40-derived peptides and uses thereof” (The Board of Trustees of the Leland Stanford Junior …, priority 1994, dated 2002).
Entries after “also recorded” stand apart in the source; their conditions may differ.

Legend:
Xenopus oocytes = test: PKC-mediated Xenopus oocyte maturation (germinal vesicle breakdown, GVBD) after peptide microinjection; format: cell-based; settings: for dose dependence of effect on GVBD: between 5 μm-500 μM
βPKC [1] = test: βPKC translocation (soluble vs particulate fraction) in Xenopus oocytes; format: cell-based; settings: peptide 50 μM microinjected; for insulin (hormone)-induced βPKC translocation: 60 min after insulin; for βPKC distribution / translocation in the absence of insulin treatment: untreated oocytes, 60 min
Method: Insulin causes the translocation of βPKC, but not other PKC isozymes, from a cytosolic form to a membrane-associated form, as evidenced by the relative levels of PKC in the soluble vs. the particulate fraction of oocyte homogenate. To assess the effects of RACK1 WD-40-derived peptides on insulin-induced PKC translocation, 50 nl of a 20 mM NaCl solution containing the indicated peptides were microinjected into Xenopus oocytes. The oocytes were then homogenized, and the relative amount of PKC in the soluble and particulate fractions was assayed. The protocol followed was a modification of a method described by Smith, et al. (1992).
Batches of 50 oocytes were microinjected with either peptide rVI (SEQ ID NO:7; 50 μM; lanes 3, 4), peptide I (SEQ ID NO:1; 50 μM, lanes 7, 8) or injection solution (NaCl 20 mM, lanes 1,2 and 5,6). Homogenates from each batch were prepared 60 minutes after microinjection (lanes 1-4) or 60 minutes after addition of insulin (lanes 5-8). The homogenates were centrifuged at 10,000 g for 3 minutes, the upper layer (containing fat and yolk) was removed, and the remainder was frozen at −70° C. Prior to use, the samples were thawed, 200 μl homogenization buffer was added and the samples were centrifuged at 100,000 g for 30 minutes at 4° C. The supernatants (soluble fraction) were removed and concentrated to 20 μl using “CENTRICON” concentrators (Amicon,Beverly, Mass.). The pellets (particulate fractions) were dissolved in 20 μl of homogenization buffer. The samples were resolved on an 8% SDS/PAGE gel and blotted onto nitrocellulose. The amount of PKC in each fraction was determined by Western blot using anti-βPKC antibodies (1:1000 dilution; Seikagaku Kogyo, Tokyo, Japan). Bound primary antibodies were detected by chemiluminescence as described in Example 3, part C.

βPKC [2] = target: T1, βPKC (Rattus norvegicus, UniProt P68403); test: Sensitivity of βPKC to Arg-C endopeptidase (nicking); format: biochemical; settings: low activators: 2.5 μg/ml PS and 50 μM CaCl2; for nicking of βPKC by Arg-C (78 kDa fragment): peptide 10 μM
T1 construct: All the solutions contained 5 nM rat brain PKC; from tissue; host or cells: rat brain
Source text: Upon activation of PKC, a pseudosubstrate autoinhibitory sequence at the N-terminus of the molecule dissociates from the catalytic site and becomes sensitive to endopeptidase Arg-C (Orr, et al.). In the absence of PKC activators, exposure of the 80 kDa βPKC to endopeptidase Arg-C has no effect on the enzyme (see FIG. 7, lane 1). In the presence of the PKC activators PS, DG and calcium, however, exposure of βPKC to Arg-C results in a “nicking” of the PKC (i.e. limited proteolysis generating a 78 kDa fragment and several small fragments (see FIG. 7, lane 2)). Continued exposure to Arg-C results in the disappearance of βPKC (Orr, et al.). The present experiment tests whether peptides derived from the WD-40 region of RACK1 alter the sensitivity of βPKC to endopeptidase Arg-C.
The methods used to assay Arg-C sensitivity are a modification of methods described by Orr, et al. Rat brain PKC (˜5 nM) was incubated at room temperature in 500 μl of 20 mM Tris-HCl buffer (pH 7.5) alone or with Arg-C (5 units/ml) in the presence or absence of the indicated peptides (final concentration 10 μM or as indicated), PS, DG, and calcium (as indicated). 50 μl aliquots were removed into 20 μl of sample buffer during the reaction as indicated (samples in all the lanes were incubated for 30 minutes , except lanes 5, and 6, which were incubated for 5 and 15 minutes, respectively). The samples were boiled for 10 minutes at 80° C. and loaded onto 8% SDS-PAGE. βPKC was detected by Western blot analysis using anti-βPKC antibodies as described in Examples 6 and 8.
PKC was incubated for the indicated time alone (lane 1) or in the presence of Arg-C (lanes 2-9), with DG (0.8 μg/ml), PS (50 μg/ml) and CaCl2 (1 mM; lane 2), with PS (50 μg/ml) and CaCl2 (1 mM; lane 3), with PS (2.5 μg/ml) and CaCl2 (50 μM; lane 4); with PS (2.5 μg/ml), CaCl2 (50 μM) and with either peptide rVI (SEQ ID NO:7; 10 μM; lanes 5-7), control peptide (SEQ ID NO:9; lane 8) or with peptide I (SEQ ID NO:1; lane 9).

βPKC [3] = target: T1, βPKC; test: PKC overlay of peptides immobilized on nitrocellulose (slot blot); format: binding; settings: for binding of activated PKC to immobilized peptide: 5 nM rat brain PKC with PS; for binding of activated PKC to immobilized peptide / lowest peptide amount at which activated PKC bound: DG and calcium; for binding of unactivated PKC to immobilized peptide: 5 nM rat brain PKC without PS, DG, calcium; for lowest peptide amount at which activated PKC bound: PKC with PS, 0.5-10.0 μmole peptide applied
Method: The binding of βPKC to peptide I (SEQ ID NO:1), peptide rVI (SEQ ID NO:7) and control peptide (SEQ ID NO:9) was assessed using a PKC overlay assay similar to that described in Example 3. Increasing amounts of peptides (0.5 μmole, 1.0 μmole, 5.0 μmole and 10.0 μmole) suspended in 20 mM NaCl were applied individually onto nitrocellulose using a slot-blot apparatus (Schleicher and Schuell, Keene, N.H.). The nitrocellulose membrane was washed three times, 15 minutes per wash, in peptide overlay buffer and incubated for two hours in peptide overlay block buffer. The membrane was cut into sections and the sections were transferred to different PKC-containing solutions and incubated for 30 minutes at room temperature. All the solutions contained 5 nM rat brain PKC in peptide overlay buffer. Some solutions additionally contained PS, DG, and calcium. The membranes were then washed three times, 15 minutes per wash, in peptide overlay buffer and incubated in peptide overlay block buffer containing anti-βPKC monoclonal antibodies (1:1000 dilution; Seikagaku Kogyo, Tokyo, Japan). After a 16 hr incubation at room temperature, the filters were washed three times, 15 minutes per wash, in peptide overlay buffer.
Binding of PKC was determined using chemiluminescence as described in Example 3, part C. Quantitation of PKC binding was carried out using a “MICRO SCAN” 1000 gel analyzer (Galai Inc., Yokneam, Israel).

[4] = peptide 50 μM alone, no insulin

T1 sequence (P68403 whole entry, the tested form may be a part): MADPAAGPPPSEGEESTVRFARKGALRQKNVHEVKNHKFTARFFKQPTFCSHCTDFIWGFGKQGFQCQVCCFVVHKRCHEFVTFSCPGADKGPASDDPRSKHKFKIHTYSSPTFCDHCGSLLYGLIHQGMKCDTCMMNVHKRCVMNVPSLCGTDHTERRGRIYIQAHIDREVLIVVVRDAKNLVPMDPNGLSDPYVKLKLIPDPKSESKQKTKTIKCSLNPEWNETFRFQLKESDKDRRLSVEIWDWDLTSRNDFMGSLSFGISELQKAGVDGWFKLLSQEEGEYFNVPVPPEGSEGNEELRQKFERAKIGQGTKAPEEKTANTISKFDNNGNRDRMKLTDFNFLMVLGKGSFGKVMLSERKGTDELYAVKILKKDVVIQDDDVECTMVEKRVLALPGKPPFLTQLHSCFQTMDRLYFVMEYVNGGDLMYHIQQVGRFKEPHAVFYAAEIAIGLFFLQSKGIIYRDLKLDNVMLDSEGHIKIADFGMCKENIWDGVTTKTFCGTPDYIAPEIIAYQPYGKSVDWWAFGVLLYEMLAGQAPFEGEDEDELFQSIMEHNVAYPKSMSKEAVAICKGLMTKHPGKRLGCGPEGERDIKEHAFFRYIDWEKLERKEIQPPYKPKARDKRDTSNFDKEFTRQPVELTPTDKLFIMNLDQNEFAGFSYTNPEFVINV

peptide rVI: eight amino acid peptide identical to a segment of RACK1 WD-40 repeat VI (DIINALCF)
dose dependence of effect on GVBD (Xenopus oocytes): dose-dependent | delay to initiation of maturation in the absence of insulin (Xenopus oocytes; [4]): 6 to 7 h | induction of GVBD in the absence of insulin (Xenopus oocytes; [4]): induced oocyte maturation; also recorded: induced GVBD | plateau % GVBD in the absence of insulin (Xenopus oocytes; [4]): about 50% | insulin (hormone)-induced βPKC translocation (βPKC [1]): augments hormone-induced translocation | βPKC distribution / translocation in the absence of insulin treatment (βPKC [1]): induced βPKC translocation | lowest peptide concentration sufficient to result in nicking activity (βPKC [2]): 10 nM | nicking of βPKC by Arg-C (78 kDa fragment) (βPKC [2]): time-dependent appearance of the 78 kDa nicked PKC fragment | binding of activated PKC to immobilized peptide (βPKC [3]): bound | binding of unactivated PKC to immobilized peptide (βPKC [3]): did bind | lowest peptide amount at which activated PKC bound (βPKC [3]): 5 µmol

peptide I: 15-residue peptide homologous to a sequence in the sixth WD-40 repeat of RACK1; PKC antagonist (KGDYEKILVALCGGN)
dose dependence of effect on GVBD (Xenopus oocytes): dose-dependent | insulin (hormone)-induced βPKC translocation (βPKC [1]): inhibited hormone-induced translocation; also recorded: inhibited insulin-induced βPKC translocation | βPKC distribution / translocation in the absence of insulin treatment (βPKC [1]): did not affect βPKC distribution | nicking of βPKC by Arg-C (78 kDa fragment) (βPKC [2]): did not result in appreciable nicking activity; also recorded: did not occur | binding of activated PKC to immobilized peptide (βPKC [3]): bound | binding of unactivated PKC to immobilized peptide (βPKC [3]): did not bind | lowest peptide amount at which activated PKC bound (βPKC [3]): 5 µmol
